In PubChem BioAssay AID488966 (Southern Research Specialized Biocontainment Screening …, 2010):

Each compound was assayed on E. coli UTI89 K1F phage lysis, alamar blue, 2 h (assay: inhibition of K1F phage lysis, E. coli UTI89, bacterial capsule biogenesis inhibitors, alamar blue (AID 488966);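 note: capsule biogenesis inhibitors block K1F phage lysis so surviving cells raise fluorescence; higher fluorescence means more inhibition of phage lysis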).

Compound | IC50 [µM]
Cc1cccc(C)c1NC(=O)C[N+](C)(C)CC(O)COc1cccc2ccccc12 (stereo not given) | 91
O=C(NCc1cc([N+](=O)[O-])ccc1O)c1cccnc1Sc1ccccc1Cl | 175
O=C(NCc1cc([N+](=O)[O-])ccc1O)c1cccnc1Sc1ccccc1 | 128
C=CCOc1ccc(C2c3c(oc4ccccc4c3=O)C(=O)N2CCCN2CCOCC2)cc1 (stereo not given) | 200
N=C(N)c1ccc(/C=C/c2ccc(C(=N)N)cc2O)cc1 | 11.1
O=C(Nc1ccncc1)c1ccc2ncsc2c1 | 123
COc1ccc2nc(NC(=O)c3ccc(Br)s3)sc2c1 | 59.7
CCC1=NN2C(=N)/C(=C\c3ccc(SCc4ccco4)o3)C(=O)N=C2S1 | 68.7
O=C(COc1ccc(Cl)cc1Cl)Nc1ccc(C(=O)Nc2ccccc2C(=O)O)cc1 | 74.6
Cc1ccccc1NC(=NCCCN1CC1)Nc1ccccc1C | 286
N=c1n(CCN2CCCC2)c2ccccc2n1CC(O)c1ccc(Cl)c(Cl)c1 (stereo not given) | 140
N=C(N)SCCc1cccc(CCSC(=N)N)c1 | 114
O=C1c2c(O)ccc(O)c2C(=O)c2c(NCCNCCO)ccc(NCCNCCO)c21 | 211
CCN(CC)CCCNc1nc2ccccc2c2[nH]c3ccc(OC)cc3c12 | 86.6
Cc1cc(C)c(NC(=O)C[N+](C)(C)CC(O)COc2cccc3ccccc23)c(C)c1 (stereo not given) | 82.2
COc1cc(/C=N/N=C(N)N)ccc1OCc1ccccc1Cl | 56.4
Cc1ccc(C2c3c(oc4cc(C)c(C)cc4c3=O)C(=O)N2CCCN2CCOCC2)cc1 (stereo not given) | 228
NC(N)=N/N=C/c1ccc(OCc2ccccc2)cc1 | 60.8
CCN(CC)c1ccc2c(-c3ccc(S(=O)(=O)O)cc3S(=O)(=O)[O-])c3ccc(=[N+](CC)CC)cc-3oc2c1 | 30.6
CCCOc1ccc(C(=O)C(CCC(CNCC)C(=O)c2ccc(OCCC)cc2)CNCC)cc1 (stereo not given) | 132
CCN(CCCl)c1cc(CN(C)C)cc(NC(=O)c2ccc(C(=O)Nc3cc(CN(C)C)cc(N(CC)CCCl)c3)cc2)c1 | 118
CC1(C(=O)O)CCC(C(=O)Nc2ccc3ccccc3c2)C1(C)C (stereo not given) | 178
O=C1C2(Cl)C3(Cl)C4(Cl)C(Cl)(Cl)C5(Cl)C3(Cl)C1(Cl)C5(Cl)C24Cl (stereo not given) | 74.8
O=C(Nc1cccc(C2=NCCN2)c1)Nc1cccc(C2=NCCN2)c1 | 251
O=C(ONc1ccc(N=NC(=O)c2ccccc2O)cc1)c1ccccc1 | 72.7
